Assay results reported in US8507017B2, “Method for decreasing nicotine and other substance use in humans” (Arizona Health Consulting Group, LLC, priority 2003, dated 2013).

Columns and labels:
[1] = target: T1, (Homo sapiens, UniProt P30926+P43681); assay: whole-cell patch-clamp recording of nicotinic responses, α4α4 nAChR subtype; assay type: cell-based; details: THB 0.1 mM; nicotine 1.0 μM; FIG. 6B (2)
T1 construct: expressed in transfected cells; host or cells: SH-EP1 human epithelial cell line
T1 sequence (P43681 27-627): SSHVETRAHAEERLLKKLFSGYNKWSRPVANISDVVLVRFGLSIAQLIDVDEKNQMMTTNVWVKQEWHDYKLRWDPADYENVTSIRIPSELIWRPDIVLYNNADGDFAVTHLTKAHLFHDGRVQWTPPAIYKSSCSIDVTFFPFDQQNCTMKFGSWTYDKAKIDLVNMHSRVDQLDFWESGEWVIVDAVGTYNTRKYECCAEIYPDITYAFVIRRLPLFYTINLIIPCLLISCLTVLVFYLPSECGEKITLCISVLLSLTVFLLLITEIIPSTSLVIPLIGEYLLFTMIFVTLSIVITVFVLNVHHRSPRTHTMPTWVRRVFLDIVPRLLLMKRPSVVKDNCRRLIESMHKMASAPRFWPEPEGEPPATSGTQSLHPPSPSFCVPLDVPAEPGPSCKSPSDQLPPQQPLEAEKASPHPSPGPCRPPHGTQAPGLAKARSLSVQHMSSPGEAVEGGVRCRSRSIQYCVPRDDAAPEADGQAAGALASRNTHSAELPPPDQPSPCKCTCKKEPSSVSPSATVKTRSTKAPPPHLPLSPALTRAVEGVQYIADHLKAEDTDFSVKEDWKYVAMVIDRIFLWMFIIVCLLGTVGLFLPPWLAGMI
T1 sequence (P30926 22-498): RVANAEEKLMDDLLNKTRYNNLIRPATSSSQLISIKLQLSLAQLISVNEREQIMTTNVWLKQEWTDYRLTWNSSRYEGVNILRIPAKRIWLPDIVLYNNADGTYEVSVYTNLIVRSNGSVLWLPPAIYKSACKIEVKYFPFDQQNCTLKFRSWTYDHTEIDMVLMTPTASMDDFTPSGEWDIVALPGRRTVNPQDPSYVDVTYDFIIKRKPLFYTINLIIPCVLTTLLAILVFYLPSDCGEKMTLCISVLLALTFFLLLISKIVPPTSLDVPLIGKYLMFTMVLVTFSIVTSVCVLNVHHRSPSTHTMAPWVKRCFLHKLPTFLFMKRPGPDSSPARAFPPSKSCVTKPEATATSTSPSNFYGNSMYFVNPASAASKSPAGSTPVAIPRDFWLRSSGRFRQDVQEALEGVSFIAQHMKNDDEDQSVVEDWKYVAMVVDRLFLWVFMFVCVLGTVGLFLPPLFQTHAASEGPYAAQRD
Description: (§1) In FIGS. 6-9, whole-cell patch-clamp recording techniques in voltage-clamp mode were used to detect changes in current. Conventional whole-cell current recording coupled with techniques for fast application and removal of agonist (9 channel multi-barrel pipette), were applied in this study. Briefly, cells plated on poly-lysine-coated 35-mm culture dishes were placed on the stage of an inverted microscope (Olympus iX7, Lake Success, N.Y.) and continuously superfused with standard external solution (2 ml/min). Glass microelectrodes (3-5 MΩ resistance between pipette and extracellular solutions) were used to form tight seals (>1 GΩ) on the cell surface until suction was applied to convert to conventional whole-cell recording.
(§2) Both pipette and whole current capacitance were minimized and the series resistance was routinely compensated to 80%. The access resistance before series resistance compensation was between 10-20 MΩ. Data acquisition and analyses were done using Pclamp8 (Axon Instruments), and results were plotted using Origin 5.0 (Microcal, North Hampton, Mass.).
(§3) Data usually were fit over the 10-90% period from inward current peak until agonist exposure was terminated (5-10 sec). The experimental data are presented as means±standard errors, and comparisons of different conditions were analyzed for statistical significance using the Student's t-tests. […]

α4β2-nAChR = target: T2, α4β2-nAChR (Homo sapiens, UniProt P17787+P43681); assay: whole-cell patch-clamp recording of nicotine-induced currents, α4β2-nAChR expressed in SH-EP1 cells; assay type: cell-based; details: for effect on α4β2-nAChR mediated currents (peak current response, steady-state component): 0.1 mM of each Magnoliidae compound, FIG. 6A
T2 construct: expressed in transfected cells; host or cells: SH-EP1 human epithelial cell line (nAChR-null)
T2 sequence (P43681 29-627 limits assumed): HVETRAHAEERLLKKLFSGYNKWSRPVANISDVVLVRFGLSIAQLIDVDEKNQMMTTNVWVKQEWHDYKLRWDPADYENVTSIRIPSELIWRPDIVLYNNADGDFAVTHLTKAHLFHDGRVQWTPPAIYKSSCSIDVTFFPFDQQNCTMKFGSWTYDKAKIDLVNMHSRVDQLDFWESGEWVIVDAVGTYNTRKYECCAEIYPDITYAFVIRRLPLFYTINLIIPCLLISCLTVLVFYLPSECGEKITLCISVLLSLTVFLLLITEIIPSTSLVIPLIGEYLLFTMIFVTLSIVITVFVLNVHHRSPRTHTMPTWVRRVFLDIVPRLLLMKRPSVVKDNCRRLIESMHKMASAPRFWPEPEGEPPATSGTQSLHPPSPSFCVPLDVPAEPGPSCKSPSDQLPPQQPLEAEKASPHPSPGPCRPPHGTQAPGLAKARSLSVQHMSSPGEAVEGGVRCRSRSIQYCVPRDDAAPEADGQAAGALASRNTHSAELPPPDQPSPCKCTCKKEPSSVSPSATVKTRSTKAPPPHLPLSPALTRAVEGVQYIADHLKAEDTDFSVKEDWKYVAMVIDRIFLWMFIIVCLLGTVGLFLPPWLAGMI
T2 sequence (P17787 26-502): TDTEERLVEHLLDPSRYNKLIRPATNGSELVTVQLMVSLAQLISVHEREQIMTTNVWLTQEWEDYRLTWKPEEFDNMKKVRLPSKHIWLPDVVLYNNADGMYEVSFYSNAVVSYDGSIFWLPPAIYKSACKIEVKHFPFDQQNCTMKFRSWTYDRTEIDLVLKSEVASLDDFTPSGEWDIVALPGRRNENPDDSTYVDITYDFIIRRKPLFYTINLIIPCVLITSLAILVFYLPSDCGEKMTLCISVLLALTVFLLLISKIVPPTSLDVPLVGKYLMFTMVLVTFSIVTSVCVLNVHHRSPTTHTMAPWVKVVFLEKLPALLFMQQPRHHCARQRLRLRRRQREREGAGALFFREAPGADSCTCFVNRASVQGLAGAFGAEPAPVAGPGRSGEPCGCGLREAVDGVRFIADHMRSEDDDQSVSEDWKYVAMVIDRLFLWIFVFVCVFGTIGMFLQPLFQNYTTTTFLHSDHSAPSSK
Description: as §1, §2
Data usually were fit over the 10-90% period from inward current peak until agonist exposure was terminated (5-10 sec). The experimental data are presented as means±standard errors, and comparisons of different conditions were analyzed for statistical significance using the Student's t-tests. All experiments were performed at room temperature (22±1° C.). A pipette electrode solution comprising TrisPO4dibasic 110 milli-Molar (mM), Trisbase 28 mM, Ethylenediaminetetraacetate (EDTA) 11 mM, Magnesium Chloride (MgCl2) 2 mM, Calcium Chloride (CaCl2) 0.5 mM, and Sodium-Adenosine Triphosphate (Na-ATP) 4 mM, resulting in a pH of 7.3, was used.

[2] = system: D1-type and D2-type DA receptor; details: cited from earlier work
α7-nAChRs = target: T3, α7-nAChRs (Homo sapiens, UniProt P36544); assay: whole-cell patch-clamp recording of nicotinic responses, α7 nAChR subtype; assay type: cell-based; details: THB 0.1 mM; nicotine 1.0 μM; FIG. 6B (3)
T3 construct: expressed in transfected cells; host or cells: SH-EP1 human epithelial cell line (stated generally, not specifically for α7)
T3 sequence (P36544 23-502): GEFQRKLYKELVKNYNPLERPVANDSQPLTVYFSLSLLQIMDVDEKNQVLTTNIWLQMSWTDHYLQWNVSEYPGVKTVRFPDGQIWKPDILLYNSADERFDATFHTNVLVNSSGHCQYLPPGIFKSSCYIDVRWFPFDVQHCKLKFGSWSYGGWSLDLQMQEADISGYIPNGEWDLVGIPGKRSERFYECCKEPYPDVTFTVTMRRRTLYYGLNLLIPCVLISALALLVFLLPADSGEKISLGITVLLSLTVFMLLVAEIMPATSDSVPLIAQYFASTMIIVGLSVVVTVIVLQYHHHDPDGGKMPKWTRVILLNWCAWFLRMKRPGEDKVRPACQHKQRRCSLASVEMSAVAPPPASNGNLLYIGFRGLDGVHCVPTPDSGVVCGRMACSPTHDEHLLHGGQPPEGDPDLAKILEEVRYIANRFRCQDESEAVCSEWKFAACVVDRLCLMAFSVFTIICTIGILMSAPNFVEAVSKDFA
Description: as §1, §2, §3

D1 receptors = target: T4, D1 receptors (Rattus norvegicus, UniProt P18901); details: rats with unilateral nigral lesion (DA receptor super sensitivity in striatum); cited from earlier work
T4 construct: host or cells: rats with unilateral nigral lesion, in vivo (striatum)
T4 sequence (P18901 whole entry): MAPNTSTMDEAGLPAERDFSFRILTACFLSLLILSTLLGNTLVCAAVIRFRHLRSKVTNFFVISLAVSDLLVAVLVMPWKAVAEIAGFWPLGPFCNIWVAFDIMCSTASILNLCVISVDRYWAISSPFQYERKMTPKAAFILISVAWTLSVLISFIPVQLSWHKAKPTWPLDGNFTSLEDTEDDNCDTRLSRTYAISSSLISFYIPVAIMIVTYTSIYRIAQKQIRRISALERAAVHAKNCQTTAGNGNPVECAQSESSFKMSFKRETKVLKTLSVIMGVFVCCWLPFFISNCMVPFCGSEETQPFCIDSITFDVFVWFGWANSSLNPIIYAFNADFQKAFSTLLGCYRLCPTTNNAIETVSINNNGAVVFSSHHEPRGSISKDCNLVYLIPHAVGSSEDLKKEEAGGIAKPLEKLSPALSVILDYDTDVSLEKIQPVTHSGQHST

D2 receptor = target: T5, D2 receptor (Rattus norvegicus, UniProt P61169); details: cited from earlier work
T5 construct: host or cells: normal rats, in vivo
T5 sequence (P61169 whole entry): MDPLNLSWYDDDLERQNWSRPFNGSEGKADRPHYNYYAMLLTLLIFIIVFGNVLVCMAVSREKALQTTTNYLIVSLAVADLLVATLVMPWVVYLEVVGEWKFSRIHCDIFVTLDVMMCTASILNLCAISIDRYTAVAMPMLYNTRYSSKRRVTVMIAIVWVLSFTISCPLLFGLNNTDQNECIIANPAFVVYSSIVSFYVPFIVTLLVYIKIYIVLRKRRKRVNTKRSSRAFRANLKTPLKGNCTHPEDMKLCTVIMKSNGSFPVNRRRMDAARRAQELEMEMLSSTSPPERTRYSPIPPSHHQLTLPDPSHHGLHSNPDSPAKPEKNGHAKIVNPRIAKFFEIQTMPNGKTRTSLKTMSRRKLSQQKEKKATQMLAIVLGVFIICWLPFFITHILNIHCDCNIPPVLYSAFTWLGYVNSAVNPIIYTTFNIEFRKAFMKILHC

Structure (SMILES) | effect on nicotinic response mediated by α4α4 subtype [1] | effect on α4β2-nAChR mediated currents (peak current response, steady-state component) (α4β2-nAChR) | acute desensitization of nicotine-induced currents (α4β2-nAChR; THB 30 μM, holding potentials −40 mV and −80 mV, FIG. 9A-9B) | effect on nicotinic response mediated by α4β2 subtype (α4β2-nAChR; THB 0.1 mM, nicotine 1.0 μM, FIG. 6B (1)) | effect on peak (Ip) and steady-state (Is) components of nicotinic responses at different THB concentrations (α4β2-nAChR; THB 1.0, 10, 100 μM, nicotine 1.0 μM, FIG. 7A-7C) | voltage dependence of suppression of nicotinic response (α4β2-nAChR; depending on holding potential VH) | effect on D1-type and D2-type DA receptor binding [2] | effect on nicotinic response mediated by α7 subtype (α7-nAChRs) | DA receptor characteristics in rats with unilateral nigral lesion (D1 receptors) | DA receptor characteristics in normal rats (D2 receptor)
COc1ccc2c(c1OC)CN1CCc3cc4c(cc3C1C2)OCO4 (stereo not drawn) [THB, Tetrahydroberberine] | inhibition of each nAChR subtype function | inhibition of nAChR function | accelerates acute desensitization | inhibition of each nAChR subtype function | concentration-dependent inhibition | suppressed nicotinic response depending on VH | equipotent effect | inhibitory effect occurs more predominantly in α7-nAChRs |  | 
COc1cc2c(cc1O)[C@@H]1Cc3ccc(O)c(OC)c3CN1CC2 [l-SPD, l-Stepholidine] |  | inhibition of nAChR function |  |  |  |  |  |  | acts on D1 receptors as an agonist | characteristics of D2 receptor antagonist
COc1cc2c(cc1OC)[C@@H]1Cc3ccc(OC)c(OC)c3CN1CC2 [l-THP, l-Tetrahydropalmatine] |  | inhibition of nAChR function |  |  |  |  |  |  |  | 
